Laboratory results from patent publication US11339161B2, “Triazolo pyridines as modulators of gamma-secretase” (Boehringer Ingelheim International GmbH, priority 2017, dated 2022).
Where two headings read alike, the source gives them in different places.

What was measured:
FGFR1 = FGFR1 (Homo sapiens, UniProt P11362); assay: Z'-LYTE SelectScreen biochemical kinase assay FGFR1
Excerpt: (§1) Thermo Fisher Scientific SelectScreen™ Biochemical Kinase Profiling Service Z′-LYTE™ Screening Protocol and Assay Conditions Assay Theory
(§2) The […] biochemical assay employs a fluorescence-based, coupled-enzyme format and is based on the differential sensitivity of phosphorylated and non-phosphorylated peptides to proteolytic cleavage. The peptide substrate is labeled with two fluorophores—one at each end—that make up a FRET pair. In the primary reaction, the kinase transfers the gamma-phosphate of ATP to a single tyrosine, serine or threonine residue in a synthetic FRET-peptide. In the secondary reaction, a site-specific protease recognizes and cleaves non-phosphorylated FRET-peptides. Phosphorylation of FRET-peptides suppresses cleavage by the Development Reagent. Cleavage disrupts FRET between the donor (i.e., coumarin) and acceptor (i.e., fluorescein) fluorophores on the FRET-peptide, whereas uncleaved, phosphorylated FRET-peptides maintain FRET. A ratiometric method, which calculates the ratio (Emission Ratio=Coumarin emission (445 nm)/Fluorescein emission (520 nm)) of donor emission to acceptor emission after excitation of the donor fluorophore at 400 nm, is used to quantitate reaction progress, as shown in the equation below. A significant benefit of this ratiometric method for quantitating reaction progress is the elimination of well-to-well variations in FRET-peptide concentration and signal intensities. As a result, the assay yields very high Z′-factor values (>0.7) at a low percent phosphorylation. Both cleaved and uncleaved FRET-peptides contribute to the fluorescence signals and therefore to the Emission Ratio. The extent of phosphorylation of the FRET-peptide can be calculated from the Emission Ratio. The Emission Ratio will remain low if the FRET-peptide is phosphorylated (i.e., no kinase inhibition) and will be high if the FRET-peptide is non-phosphorylated (i.e., kinase inhibition).
(§3) The Test Compounds are screened in 1% DMSO (final) in the well. For 10 point titrations, 3-fold serial dilutions are conducted from the starting concentration of the customer's choosing.
(§4) All Peptide/Kinase Mixtures are diluted to a 2× working concentration in the appropriate Kinase Buffer (see section Kinase Specific Assay Conditions for a complete description).
(§5) All ATP Solutions are diluted to a 4× working concentration in Kinase Buffer (50 mM HEPES pH 7.5, 0.01% BRIJ-35, 10 mM MgCl2, 1 mM EGTA). ATP Km apparent is previously determined using a Z″-LYTE assay.
(§6) The Development Reagent is diluted in Development Buffer (see section Kinase-Specific Assay Conditions—Direct and Cascade for a complete description).
(§7) Bar-coded Corning, low volume NBS, black 384-well plate (Corning Cat. #4514) • 1. 100 nL—100× Test Compound in 100% DMSO • 2. 2.4 μL—Kinase buffer • 3. 5 μL—2× Peptide/Kinase Mixture • 4. 2.5 μL—4×ATP Solution • 5. 30—second plate shake • 6. 60—minute Kinase Reaction incubation at room temperature • 7. 5 μL—Development Reagent Solution • 8. 30—second plate shake • 9. 60—minute Development Reaction incubation at room temperature • 10. Read on fluorescence plate reader and analyze the data Z′-LYTE Assay Controls
(§8) SelectScreen Kinase Profiling Service uses XLfit from IDBS. The dose response curve is curve fit to model number 205 (sigmoidal dose-response model).
(§9) The 2×FGFR1/Tyr 04 mixture is prepared in 50 mM HEPES pH 7.5, 0.01% BRIJ-35, 10 mM MgCl2, 4 mM MnCl2, 1 mM EGTA, 2 mM DTT. The final 10 μL Kinase Reaction consists of 0.44-2.45 ng FGFR1 and 2 μM Tyr 04 in 50 mM HEPES pH 7.5, 0.01% BRIJ-35, 10 mM MgCl2, 2 mM MnCl2, 1 mM EGTA, 1 mM DTT. After the 1 hour Kinase Reaction incubation, 5 μL of a 1:64 dilution of Development Reagent B is added.

KDR (VEGFR2) = KDR (VEGFR2) (Homo sapiens, UniProt P35968); assay: Z'-LYTE SelectScreen biochemical kinase assay KDR (VEGFR2)
Excerpt: as §1, §2, §3, §4, §5, §6, §7, §8
(§10) The 2×KDR (VEGFR2)/Tyr 01 mixture is prepared in 50 mM HEPES pH 7.5, 0.01% BRIJ-35, 10 mM MgCl2, 1 mM EGTA. The final 10 μL Kinase Reaction consists of 1-30 ng KDR (VEGFR2) and 2 μM Tyr 01 in 50 mM HEPES pH 7.5, 0.01% BRIJ-35, 10 mM MgCl2, 1 mM EGTA. After the 1 hour Kinase Reaction incubation, 5 μL of a 1:256 dilution of Development Reagent B is added.

PDGFRA (PDGFR alpha) = PDGFRA (PDGFR alpha) (Homo sapiens, UniProt P16234); assay: Z'-LYTE SelectScreen biochemical kinase assay PDGFRA (PDGFR alpha)
Excerpt: as §1, §2, §3, §4, §5, §6, §7, §8
as §9, with “2×PDGFRA (PDGFR alpha)/Tyr” for “2×FGFR1/Tyr”, “1.54-22.6” for “0.44-2.45”, “PDGFRA (PDGFR alpha)” for “FGFR1”

PTK2 (FAK) = PTK2 (FAK) (Homo sapiens, UniProt Q05397); assay: Z'-LYTE SelectScreen biochemical kinase assay PTK2 (FAK)
Excerpt: as §1, §2, §3, §4, §5, §6, §7, §8
as §10, with “The 2×PTK2 (FAK)/Tyr 07” for “The 2×KDR (VEGFR2)/Tyr 01”, “of 12.5-100” for “of 1-30”, “ng PTK2 (FAK)” for “ng KDR (VEGFR2)”, “Tyr 07” for “Tyr 01”, “a 1:16” for “a 1:256”

[1] = 10 μmolar compound concentration, ATP at Km app, read-out: FGFR1 inhibition
[2] = read-out: % Inhibition mean FGFR1
[3] = 10 μmolar compound concentration, ATP at Km app, read-out: KDR (VEGFR2) inhibition
[4] = read-out: % Inhibition mean KDR (VEGFR2)
[5] = 10 μmolar compound concentration, ATP at Km app, read-out: PDGFRA (PDGFR alpha) inhibition
[6] = read-out: % Inhibition mean PDGFRA (PDGFR alpha)
[7] = 10 μmolar compound concentration, ATP at Km app, read-out: PTK2 (FAK) inhibition
[8] = read-out: % Inhibition mean PTK2 (FAK)

Chain of FGFR1 (P11362 22-822): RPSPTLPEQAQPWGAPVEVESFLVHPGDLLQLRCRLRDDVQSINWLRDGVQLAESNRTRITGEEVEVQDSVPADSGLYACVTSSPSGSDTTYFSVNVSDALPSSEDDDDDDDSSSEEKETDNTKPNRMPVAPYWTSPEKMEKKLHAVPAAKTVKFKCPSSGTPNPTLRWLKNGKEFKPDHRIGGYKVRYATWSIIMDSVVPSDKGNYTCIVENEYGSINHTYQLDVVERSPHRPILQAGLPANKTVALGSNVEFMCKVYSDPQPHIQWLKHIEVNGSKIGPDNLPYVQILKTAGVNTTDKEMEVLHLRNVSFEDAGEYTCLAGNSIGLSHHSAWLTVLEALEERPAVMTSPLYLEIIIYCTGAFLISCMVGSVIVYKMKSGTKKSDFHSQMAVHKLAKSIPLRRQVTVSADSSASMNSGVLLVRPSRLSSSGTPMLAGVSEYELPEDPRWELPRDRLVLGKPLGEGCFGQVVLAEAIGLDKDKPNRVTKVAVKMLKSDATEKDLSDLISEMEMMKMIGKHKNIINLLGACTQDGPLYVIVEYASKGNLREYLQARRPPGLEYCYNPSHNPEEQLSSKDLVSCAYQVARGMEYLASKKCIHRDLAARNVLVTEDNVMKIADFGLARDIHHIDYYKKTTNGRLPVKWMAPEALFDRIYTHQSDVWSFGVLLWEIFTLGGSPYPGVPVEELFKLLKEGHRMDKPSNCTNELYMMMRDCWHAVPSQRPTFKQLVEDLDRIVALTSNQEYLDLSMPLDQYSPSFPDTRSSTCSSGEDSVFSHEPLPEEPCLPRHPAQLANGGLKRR
Chain of PDGFRA (PDGFR alpha) (P16234 24-1089): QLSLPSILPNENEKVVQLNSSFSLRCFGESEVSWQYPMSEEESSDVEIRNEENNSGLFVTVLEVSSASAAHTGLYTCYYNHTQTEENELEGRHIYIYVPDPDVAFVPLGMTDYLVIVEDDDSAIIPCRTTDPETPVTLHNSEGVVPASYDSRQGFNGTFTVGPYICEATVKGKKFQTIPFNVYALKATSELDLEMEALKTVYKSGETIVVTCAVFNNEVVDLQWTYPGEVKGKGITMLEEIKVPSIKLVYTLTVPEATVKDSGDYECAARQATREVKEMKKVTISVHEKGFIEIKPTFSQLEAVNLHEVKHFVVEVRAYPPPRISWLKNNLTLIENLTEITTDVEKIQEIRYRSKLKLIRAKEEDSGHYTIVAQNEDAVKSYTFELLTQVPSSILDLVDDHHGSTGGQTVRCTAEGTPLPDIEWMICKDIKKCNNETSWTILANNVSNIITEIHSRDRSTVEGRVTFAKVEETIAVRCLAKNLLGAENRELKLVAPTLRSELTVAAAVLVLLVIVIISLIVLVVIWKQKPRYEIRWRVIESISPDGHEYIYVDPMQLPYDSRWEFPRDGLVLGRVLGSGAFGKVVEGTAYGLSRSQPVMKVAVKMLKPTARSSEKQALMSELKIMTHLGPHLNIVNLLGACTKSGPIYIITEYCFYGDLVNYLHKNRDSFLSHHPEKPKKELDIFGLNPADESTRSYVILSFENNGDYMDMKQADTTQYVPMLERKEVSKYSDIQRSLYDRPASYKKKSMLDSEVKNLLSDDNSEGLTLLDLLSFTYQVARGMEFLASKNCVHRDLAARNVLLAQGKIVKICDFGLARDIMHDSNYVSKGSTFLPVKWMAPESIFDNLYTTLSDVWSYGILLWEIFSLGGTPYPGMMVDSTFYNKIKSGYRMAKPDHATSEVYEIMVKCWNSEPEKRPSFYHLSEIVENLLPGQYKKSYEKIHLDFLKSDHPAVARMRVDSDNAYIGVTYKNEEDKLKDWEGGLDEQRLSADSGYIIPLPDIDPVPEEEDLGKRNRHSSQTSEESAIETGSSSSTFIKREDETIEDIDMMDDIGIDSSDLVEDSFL
Chain of KDR (VEGFR2) (P35968 20-1356): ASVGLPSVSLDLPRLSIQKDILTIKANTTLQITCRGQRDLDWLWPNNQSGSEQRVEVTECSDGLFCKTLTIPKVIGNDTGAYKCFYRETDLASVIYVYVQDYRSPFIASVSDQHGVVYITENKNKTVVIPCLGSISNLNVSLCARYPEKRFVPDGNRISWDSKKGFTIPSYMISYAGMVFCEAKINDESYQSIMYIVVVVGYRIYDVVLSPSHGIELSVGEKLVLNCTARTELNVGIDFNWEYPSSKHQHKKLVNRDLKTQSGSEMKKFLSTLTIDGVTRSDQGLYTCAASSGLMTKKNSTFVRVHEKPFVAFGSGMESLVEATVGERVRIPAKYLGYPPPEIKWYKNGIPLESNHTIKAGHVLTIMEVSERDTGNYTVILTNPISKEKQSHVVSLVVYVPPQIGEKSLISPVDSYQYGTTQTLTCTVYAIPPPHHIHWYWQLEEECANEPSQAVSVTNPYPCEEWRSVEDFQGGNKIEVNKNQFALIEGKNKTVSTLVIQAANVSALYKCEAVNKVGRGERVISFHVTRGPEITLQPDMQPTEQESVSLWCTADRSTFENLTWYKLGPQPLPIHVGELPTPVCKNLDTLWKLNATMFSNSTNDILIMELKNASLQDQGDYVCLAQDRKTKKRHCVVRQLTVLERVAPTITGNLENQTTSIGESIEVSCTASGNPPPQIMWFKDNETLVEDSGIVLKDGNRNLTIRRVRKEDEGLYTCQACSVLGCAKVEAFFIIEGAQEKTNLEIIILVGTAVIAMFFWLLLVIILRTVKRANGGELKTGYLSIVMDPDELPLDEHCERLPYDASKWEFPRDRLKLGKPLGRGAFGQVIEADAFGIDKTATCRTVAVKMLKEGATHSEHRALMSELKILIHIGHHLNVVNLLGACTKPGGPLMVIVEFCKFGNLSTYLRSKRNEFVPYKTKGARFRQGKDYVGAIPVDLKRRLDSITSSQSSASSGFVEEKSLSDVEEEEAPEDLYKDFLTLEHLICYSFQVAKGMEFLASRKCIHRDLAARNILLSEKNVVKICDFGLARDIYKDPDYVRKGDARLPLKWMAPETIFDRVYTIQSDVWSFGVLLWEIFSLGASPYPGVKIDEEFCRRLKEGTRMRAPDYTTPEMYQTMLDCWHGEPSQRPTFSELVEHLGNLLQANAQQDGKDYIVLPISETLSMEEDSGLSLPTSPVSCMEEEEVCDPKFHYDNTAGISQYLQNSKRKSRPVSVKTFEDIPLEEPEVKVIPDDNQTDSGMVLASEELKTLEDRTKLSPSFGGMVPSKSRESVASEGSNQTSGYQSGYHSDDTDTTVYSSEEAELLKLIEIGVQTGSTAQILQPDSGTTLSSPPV
Chain of PTK2 (FAK) (Q05397 whole entry): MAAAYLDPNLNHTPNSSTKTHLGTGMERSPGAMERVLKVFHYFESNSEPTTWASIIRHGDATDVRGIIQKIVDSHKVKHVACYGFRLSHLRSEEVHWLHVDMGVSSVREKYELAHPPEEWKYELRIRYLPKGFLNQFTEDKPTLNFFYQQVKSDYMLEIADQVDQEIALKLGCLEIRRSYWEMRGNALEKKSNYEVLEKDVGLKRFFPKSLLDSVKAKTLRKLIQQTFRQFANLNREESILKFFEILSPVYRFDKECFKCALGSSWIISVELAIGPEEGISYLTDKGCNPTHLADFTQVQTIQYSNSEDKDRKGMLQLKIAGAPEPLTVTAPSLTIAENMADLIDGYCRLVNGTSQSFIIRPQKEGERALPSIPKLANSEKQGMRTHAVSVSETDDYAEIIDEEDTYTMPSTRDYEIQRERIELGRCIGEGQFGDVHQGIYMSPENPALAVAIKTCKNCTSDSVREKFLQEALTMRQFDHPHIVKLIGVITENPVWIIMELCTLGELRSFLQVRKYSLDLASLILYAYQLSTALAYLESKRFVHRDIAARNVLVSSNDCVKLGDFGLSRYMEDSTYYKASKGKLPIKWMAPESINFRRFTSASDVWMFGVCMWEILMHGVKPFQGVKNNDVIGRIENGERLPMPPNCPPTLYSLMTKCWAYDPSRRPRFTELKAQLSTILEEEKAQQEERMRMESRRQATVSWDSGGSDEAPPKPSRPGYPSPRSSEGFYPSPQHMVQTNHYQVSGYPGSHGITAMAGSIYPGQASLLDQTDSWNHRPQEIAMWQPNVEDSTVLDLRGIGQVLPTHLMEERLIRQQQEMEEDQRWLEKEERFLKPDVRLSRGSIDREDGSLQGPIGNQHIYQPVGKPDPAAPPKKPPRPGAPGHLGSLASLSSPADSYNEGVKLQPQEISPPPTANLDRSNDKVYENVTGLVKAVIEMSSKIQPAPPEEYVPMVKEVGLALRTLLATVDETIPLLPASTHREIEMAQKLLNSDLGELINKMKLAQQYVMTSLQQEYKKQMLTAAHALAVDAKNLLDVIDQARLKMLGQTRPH

inhibition at 10 µM (FGFR1; [1]) [%]	inhibition at 10 µM (FGFR1; [2]) [%]	inhibition at 10 µM (KDR (VEGFR2); [3]) [%]	inhibition at 10 µM (KDR (VEGFR2); [4]) [%]	inhibition at 10 µM (PDGFRA (PDGFR alpha); [5]) [%]	inhibition at 10 µM (PDGFRA (PDGFR alpha); [6]) [%]	inhibition at 10 µM (PTK2 (FAK); [7]) [%]	inhibition at 10 µM (PTK2 (FAK); [8]) [%]	inhibition at 10 µM (FGFR1; read-out: % Inhibition mean) [%]	inhibition at 10 µM (KDR (VEGFR2); read-out: % Inhibition mean) [%]	inhibition at 10 µM (PDGFRA (PDGFR alpha); read-out: % Inhibition mean) [%]	inhibition at 10 µM (PTK2 (FAK); read-out: % Inhibition mean) [%]	Structure (SMILES)
< 40	21	< 40	6	< 40	10	< 40	19	–	–	–	–	CCCCCn1ncc2c1CCC(Nc1nc3c(-c4ccc(F)cc4C)cccn3n1)C2 (stereo not shown) [Example 47, [8-(4-fluoro-2-methyl-phenyl)-[1,2,4]triazolo[1,5-a]pyridine-2-yl]-(1-pentyl-4,5,6,7-tetrahydro-1H-indazol-5-yl)-amine]
< 40	35	< 40	30	40 to 80	59	< 40	7	–	–	–	–	Cc1cc(F)ccc1-c1cccn2nc(Nc3ccc4c(cnn4C)c3)nc12 [Example 9, [8-(4-fluoro-2-methyl-phenyl)-[1,2,4]triazolo[1,5-a]pyridine-2-yl]-(1-methyl-1H-indazol-5-yl)-amine]
< 40	15	< 40	-2	< 40	8	< 40	13	–	–	–	–	Cc1cc(F)ccc1-c1cccn2nc(NC3CCc4c(cnn4C)C3)nc12 (stereo not shown) [Example 10, [8-(4-fluoro-2-methyl-phenyl)-[1,2,4]triazolo[1,5-a]pyridine-2-yl]-(1-methyl-4,5,6,7-tetrahydro-1H-indazol-5-yl)-amine]
< 40	16	< 40	-3	< 40	12	< 40	26	–	–	–	–	CCn1ncc2c1CCC(Nc1nc3c(-c4ccc(F)cc4C)cccn3n1)C2 (stereo not shown) [Example 42, (1-Ethyl-4,5,6,7-tetrahydro-1H-indazol-5-yl)-[8-(4-fluoro-2-methyl-phenyl)-[1,2,4]triazolo[1,5-a]pyridine-2-yl]-amine]
< 40	27	< 40	-10	< 40	5	< 40	18	–	–	–	–	Cc1cc(F)ccc1-c1cccn2nc(NC3CCc4cnn(C)c4C3)nc12 (stereo not shown) [Example 40, [8-(4-Fluoro-2-methyl-phenyl)-[1,2,4]triazolo[1,5-a]pyridine-2-yl]-(1-methyl-4,5,6,7-tetrahydro-1H-indazol-6-yl)-amine]

Continued, compound first:

Structure (SMILES)	inhibition at 10 µM (FGFR1; [1]) [%]	inhibition at 10 µM (FGFR1; [2]) [%]	inhibition at 10 µM (KDR (VEGFR2); [3]) [%]	inhibition at 10 µM (KDR (VEGFR2); [4]) [%]	inhibition at 10 µM (PDGFRA (PDGFR alpha); [5]) [%]	inhibition at 10 µM (PDGFRA (PDGFR alpha); [6]) [%]	inhibition at 10 µM (PTK2 (FAK); [7]) [%]	inhibition at 10 µM (PTK2 (FAK); [8]) [%]	inhibition at 10 µM (FGFR1; read-out: % Inhibition mean) [%]	inhibition at 10 µM (KDR (VEGFR2); read-out: % Inhibition mean) [%]	inhibition at 10 µM (PDGFRA (PDGFR alpha); read-out: % Inhibition mean) [%]	inhibition at 10 µM (PTK2 (FAK); read-out: % Inhibition mean) [%]
CCn1ncc2c1CCC(Nc1nc3c(-c4cccc(Cl)c4)cccn3n1)C2 (stereo not shown) [Example 59, [8-(3-Chloro-phenyl)-[1,2,4]triazolo[1,5-a]pyridine-2-yl]-(1-ethyl-4,5,6,7-tetrahydro-1H-indazol-5-yl)-amine]	< 40	22	< 40	-8	< 40	5	< 40	16	–	–	–	–
Fc1cccc(-c2cccn3nc(Nc4ccc5[nH]cnc5c4)nc23)c1 [Cpd. 293 in WO09155551, reference compound]	> 80	–	> 80	–	> 80	–	> 80	–	93	98	88	94
CCn1ncc2c1CCC(Nc1nc3c(-c4ccc(OC)nc4)cccn3n1)C2 (stereo not shown) [Example 71, (1-Ethyl-4,5,6,7-tetrahydro-1H-indazol-5-yl)-[8-(6-methoxy-pyridin-3-yl)-[1,2,4]triazolo[1,5-a]pyridine-2-yl]-amine]	< 40	19	< 40	17	< 40	21	< 40	30	–	–	–	–
CC1(C)NC(=O)c2ccc(Nc3nc4c(-c5cccc(F)c5)cccn4n3)cc21 [Cpd. 302 in WO09155551, reference compound]	> 80	–	> 80	–	> 80	–	> 80	–	97	101	89	86
CCn1ncc2c1CCC(Nc1nc3c(-c4ccccc4)cccn3n1)C2 (stereo not shown) [Example 57, (1-Ethyl-4,5,6,7-tetrahydro-1H-indazol-5-yl)-(8-phenyl-[1,2,4]triazolo[1,5-a]pyridine-2-yl)-amine]	< 40	23	< 40	18	< 40	29	< 40	16	–	–	–	–
CCn1ncc2c1CC[C@H](Nc1nc3c(-c4ccc(F)c(Cl)c4)cccn3n1)C2 [Example S-61, (S)-[8-(3-Chloro-4-fluoro-phenyl)-[1,2,4]triazolo[1,5-a]pyridine-2-yl]-(1-ethyl-4,5,6,7-tetrahydro-1H-indazol-5-yl)-amine]	< 40	13	< 40	-15	< 40	13	< 40	23	–	–	–	–
